Data: patent US20140057837A1, “METHODS AND COMPOSITIONS FOR THE "BROWNING" OF WHITE FAT” (priority 2012, published 2014)
Entries after “also recorded” stand apart in the source; their conditions may differ.

Experiments:
[1] = test system: retroperitoneal white adipose tissue; experiment: Norepinephrine stimulation in vivo: gene expression in white fat; parameters: species or system mice; details: NE 0.3 mg/kg s.c., 4 hours after injection, 30° C.
Description: Norepinephrine Stimulation In Vivo.
To measure the norepinephrine-induced gene expression changes in white fat, the mice after 6 weeks enrichment or control housing were anesthetized with pentobarbital (90 mg/kg, i.p.) and injected with 0.3 mg/kg norepinephrine (s.c.). The mice were maintained at 30° C. throughout the experiment. Fat pads were dissected 4 h after norepinephrine injection. qRT-PCR was used to profile gene expression in white fat.

white adipose tissue = experiment: Propranolol experiment: EE-induced gene program in white adipose tissue (qRT-PCR); type: in vivo, C57BL/6 mice; details: propranolol in drinking water (0.5 g/L), EE or control housing for 5 weeks
Text: We randomly assigned 40 C57BL/6 mice, 3 weeks of age, to live in enriched or control cages supplied with propranolol in drinking water (0.5 g/L). We collected blood 3 weeks after enrichment and dissected fat pads after 5 weeks enrichment.

Compound	Lep expression in EE retroperitoneal white adipose tissue ([1]; EE mice)	Ucp1 expression in EE retroperitoneal white adipose tissue ([1]; EE mice)	gene expression changes in control retroperitoneal white adipose tissue ([1]; control-housed mice)	EE-associated molecular features of white adipose tissue (white adipose tissue)
NC[C@H](O)c1ccc(O)c(O)c1 [NE, norepinephrine]	further reduced significantly	highly increased	failed to induce significant changes	–
CC(C)NCC(O)COc1cccc2ccccc12 (stereo not shown) [Propranolol, propranolol]	–	–	–	efficiently blocked the molecular features associated with EE; also recorded: blocked enrichment-associated molecular features of white adipose tissue
